Experiment [1] is described as follows: viability loss, cell-based, CellTiter-Glo luminescence, cherry picks 01-02, cytotoxicity control for ABCB6 inhibitor project, dose response (AID 651655). Particulars: K562 vector control cells viability, CellTiter-Glo, 18 h; at 100 µM (top of the series). Background: Cellular ATP, detected with luciferase, serves as a proxy for viable cell number.
Experiment [2] concerns K562 vector control cells viability, CellTiter-Glo, 18 h. The experiment is described as above.

Structures are written as SMILES. The source made the active and inactive calls.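 How the source made its calls: active means viability at the highest tested concentration below 50%; inactive means the rest.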

The term viability denotes the share of living cells, or the viability signal relative to a control. For `O=C(Nc1ccc(F)cc1)c1nc(S(=O)(=O)Cc2ccccc2)ncc1Cl`, in experiment [1], the viability is 81.6% (inactive).

For orientation: EC50 means the concentration at which the effect is half-maximal. Regarding `Cc1cccc(C)c1NC(=O)c1nc(S(=O)(=O)Cc2ccccc2)ncc1Cl`, in experiment [2], the EC50 is 0.979 µM.

As to `Cc1nnc(NC(=O)c2nc(S(=O)(=O)Cc3ccccc3)ncc2Cl)s1`, in experiment [2], the EC50 is 2.05 µM.

For the compound `Cc1cccc(CS(=O)(=O)c2ncc(Cl)c(C(=O)Nc3ccc(F)cc3)n2)c1`, in experiment [1], the viability was 90.2% (inactive).

For `CCOc1ccccc1NC(=O)c1nc(S(=O)(=O)Cc2ccccc2)ncc1Cl`, in experiment [2], the EC50 is 2.2 µM.

As to `CCN(CC)S(=O)(=O)c1cccc(-n2c(O)c(C=Nc3ccccc3C(=O)O)c3ccccc3c2=O)c1`, in experiment [1], the viability is 79% (inactive).

For the compound `CC(=O)Nc1ccc(NC(=O)c2nc(S(=O)(=O)Cc3ccccc3)ncc2Cl)cc1`, the EC50 in experiment [2] was 0.911 µM.

For `CC(=O)Nc1ccc(NC(=O)c2nc(S(=O)(=O)Cc3cccc(C)c3)ncc2Cl)cc1`, the half-maximal effective concentration (EC50) in experiment [2] is 0.66 µM.

For the compound `CCc1ccc(NC(=O)c2nc(S(=O)(=O)Cc3ccccc3)ncc2Cl)cc1`, in experiment [2], the EC50 is 0.39 µM.

For `CCOC(=O)c1ccc(NC(=O)c2nc(S(=O)(=O)Cc3ccccc3)ncc2Cl)cc1`, the concentration giving a half-maximal response (EC50) in experiment [2] was 1.93 µM.

Take `Cc1ccc(NC(=O)c2nc(S(=O)(=O)Cc3ccccc3)ncc2Cl)cc1`: the viability in experiment [1] is 80.4% (inactive).

On to `COC(=O)c1ccc(NC(=O)c2nc(S(=O)(=O)Cc3cccc(C)c3)ncc2Cl)cc1`, for which the viability in experiment [1] is 82.7% (inactive).

For `Cc1ccc(CS(=O)(=O)c2ncc(Cl)c(C(=O)Nc3nnc(C(C)C)s3)n2)cc1`, in experiment [2], the EC50 was 0.596 µM.

In the case of `Cc1ccc(CS(=O)(=O)c2ncc(Cl)c(C(=O)Nc3ccc(OC(F)F)cc3)n2)cc1`, in experiment [2], the concentration for a half-maximal effect (EC50) is 0.741 µM.

`CCOc1ccccc1NC(=O)c1nc(S(=O)(=O)Cc2cccc(C)c2)ncc1Cl`: in experiment [2], the EC50 was 0.715 µM.

Regarding `CCCc1nnc(NC(=O)c2nc(S(=O)(=O)Cc3cccc(C)c3)ncc2Cl)s1`, in experiment [1], the viability is 71.2% (inactive).

`Cc1ccccc1CS(=O)(=O)c1ncc(Cl)c(C(=O)Nc2ccc(F)cc2)n1`: the viability in experiment [1] was 61.6% (inactive).

On to `Cc1cccc(CS(=O)(=O)c2ncc(Cl)c(C(=O)Nc3nnc(C(C)C)s3)n2)c1`, for which, in experiment [2], the EC50 was 0.627 µM.

Turning to `C[N+](C)(C)CC1CCCC(C[N+](C)(C)C)C1=O` (stereo not given), the viability in experiment [1] was 67.5% (inactive).

On to `Cc1ccc(NC(=O)c2nc(S(=O)(=O)Cc3ccccc3C)ncc2Cl)cc1C`, for which, in experiment [2], the EC50 is 0.758 µM.

For the origin of these results see PubChem BioAssay AID651655 (NMMLSC, 2012).
